{
  "source": "paper PMC6646333",
  "about": "(Nature Communications, 2019)",
  "key": {"E. faecalis ATCC29212": {"system": "E. faecalis ATCC29212", "assay": "MIC, broth microdilution, E. faecalis ATCC29212", "type": "cell-based, Enterococcus faecalis", "settings": "for MIC, E. faecalis ATCC29212: broth microdilution, 0.01% polysorbate 80", "experimental": "(§1) MIC[18] was tested by broth microdilution according to CLSI guidelines. The state of all teixobactin analogs is amorphous, and the compounds are in the salt form of trifluoroacetates. Analogs were stored in DMSO in the concentration of 10 mg/ml. The test medium for most species of bacteria was cation adjusted Mueller–Hinton Broth containing 0.01% polysorbate 80 to prevent analogs binding to plastic surfaces. […] For the test of Streptococci, MHB contains 3% lysed horse blood (Cleveland Scientific, Bath, OH). The concentration of cell was ~5 × 10^5 cells ml^−1. […] Besides the standard strains from ATCC, all the clinical isolates are from 302 hospital. The assay was done three times to confirm results (n = 3)."}, "E. faecalis TH4130": {"system": "E. faecalis TH4130", "assay": "MIC, broth microdilution, E. faecalis TH4130", "type": "cell-based, Enterococcus faecalis", "settings": "for MIC, E. faecalis TH4130: broth microdilution, 0.01% polysorbate 80", "experimental": "as §1"}, "E. faecalis TH4132": {"system": "E. faecalis TH4132", "assay": "MIC, broth microdilution, E. faecalis TH4132", "type": "cell-based, Enterococcus faecalis", "settings": "for MIC, E. faecalis TH4132: broth microdilution, 0.01% polysorbate 80", "experimental": "as §1"}, "E. faecalis TH4126": {"system": "E. faecalis TH4126", "assay": "MIC, broth microdilution, E. faecalis TH4126", "type": "cell-based, Enterococcus faecalis", "settings": "for MIC, E. faecalis TH4126: broth microdilution, 0.01% polysorbate 80", "experimental": "as §1"}, "VRE TH4939": {"system": "VRE TH4939", "assay": "MIC, broth microdilution, VRE TH4939", "type": "cell-based, vancomycin resistant Enterococcus faecalis", "settings": "for MIC, VRE TH4939: broth microdilution, 0.01% polysorbate 80", "experimental": "as §1"}, "VRE TH4937": {"system": "VRE TH4937", "assay": "MIC, broth microdilution, VRE TH4937", "type": "cell-based, vancomycin resistant Enterococcus faecalis", "settings": "for MIC, VRE TH4937: broth microdilution, 0.01% polysorbate 80", "experimental": "as §1"}, "MRSA BAA-1695": {"system": "MRSA BAA-1695", "assay": "MIC, broth microdilution, MRSA BAA-1695", "type": "cell-based, Staphylococcus aureus", "settings": "for MIC, MRSA BAA-1695: broth microdilution, 0.01% polysorbate 80", "experimental": "as §1"}, "MRSA TH4115": {"system": "MRSA TH4115", "assay": "MIC, broth microdilution, MRSA TH4115", "type": "cell-based, Staphylococcus aureus", "settings": "for MIC, MRSA TH4115: broth microdilution, 0.01% polysorbate 80", "experimental": "as §1"}, "S. aureus TH4112": {"system": "S. aureus TH4112", "assay": "MIC, broth microdilution, S. aureus TH4112", "type": "cell-based, Staphylococcus aureus", "settings": "for MIC, S. aureus TH4112: broth microdilution, 0.01% polysorbate 80", "experimental": "as §1"}, "S. aureus ATCC29213": {"system": "S. aureus ATCC29213", "assay": "MIC, broth microdilution, S. aureus ATCC29213", "type": "cell-based", "settings": "Staphylococcus aureus, broth microdilution (CLSI), MHB + 0.01% polysorbate 80, five independent experiments ± s.d. (n = 5)", "experimental": "as §1"}, "MRSA ATCC33591": {"system": "MRSA ATCC33591", "assay": "MIC, broth microdilution, MRSA ATCC33591", "type": "cell-based", "settings": "Staphylococcus aureus; broth microdilution (CLSI), MHB + 0.01% polysorbate 80; five independent experiments ± s.d. (n = 5)", "experimental": "as §1"}, "MRSA": {"system": "MRSA", "settings": "ref J Med Chem, 2018, 61, 2009; cited from earlier work", "from_the_text": "page 6: Reply: Thanks for the reviewer’s kind comments. […] (please see the reference 34). In the paper published in Scientific Reports, they proposed that two teixobactin bind pyrophosphate-MurNAc and glutamic acid residue of one Lipid II respectively. Undeniably, this is an important discovery. Its structure model also explains experimental obervations that the pyrophosphate-MurNAc moiety is the minimal motif for binding. We selected the similar truncated lipid II i ..."}, "S. pneumoniae D39": {"system": "S. pneumoniae D39", "assay": "Mouse septicemia protection model", "settings": "for survival number: 5 mg/kg i.v., 6 mice per group"}, "MRSA ATCC 33591": {"system": "MRSA ATCC 33591", "assay": "Neutropenic mouse thigh infection model", "settings": "50 mg /kg i.v., 2 h post infection"}, "[1]": {"settings": "Enterococcus, VRE, broth microdilution (CLSI), MHB + 0.01% polysorbate 80, 37 °C, 16–20 h, n = 3"}},
  "data": [
    {"molecule": "CC1(C)S[C@@H]2[C@H](NC(=O)[C@H](N)c3ccccc3)C(=O)N2[C@H]1C(=O)O", "note": "[Ampicillin]", "values": [
      {"measurement": "MIC", "setting": "E. faecalis ATCC29212; Enterococcus faecalis, ATCC29212, broth microdilution (CLSI), MHB + 0.01% polysorbate 80, 37 °C, 16–20 h, n = 3", "result": 1, "unit": "µg/mL"},
      {"measurement": "MIC, E. faecalis ATCC29212", "setting": "E. faecalis ATCC29212; replicate 1 (Source Data)", "result": 1, "unit": "µg/mL"},
      {"measurement": "MIC, E. faecalis ATCC29212", "setting": "E. faecalis ATCC29212; replicate 2 (Source Data)", "result": 1, "unit": "µg/mL"},
      {"measurement": "MIC, E. faecalis ATCC29212", "setting": "E. faecalis ATCC29212; replicate 3 (Source Data)", "result": 1, "unit": "µg/mL"},
      {"measurement": "MIC", "setting": "E. faecalis TH4130; Enterococcus faecalis, TH4130, broth microdilution (CLSI), MHB + 0.01% polysorbate 80, 37 °C, 16–20 h, n = 3", "result": 16, "unit": "µg/mL"},
      {"measurement": "MIC, E. faecalis TH4130", "setting": "E. faecalis TH4130; replicate 1 (Source Data)", "result": 16, "unit": "µg/mL"},
      {"measurement": "MIC, E. faecalis TH4130", "setting": "E. faecalis TH4130; replicate 2 (Source Data)", "result": 16, "unit": "µg/mL"},
      {"measurement": "MIC, E. faecalis TH4130", "setting": "E. faecalis TH4130; replicate 3 (Source Data)", "result": 16, "unit": "µg/mL"},
      {"measurement": "MIC", "setting": "E. faecalis TH4132; Enterococcus faecalis, TH4132, broth microdilution (CLSI), MHB + 0.01% polysorbate 80, 37 °C, 16–20 h, n = 3", "result": 1, "unit": "µg/mL"},
      {"measurement": "MIC, E. faecalis TH4132", "setting": "E. faecalis TH4132; replicate 1 (Source Data)", "result": 1, "unit": "µg/mL"},
      {"measurement": "MIC, E. faecalis TH4132", "setting": "E. faecalis TH4132; replicate 2 (Source Data)", "result": 1, "unit": "µg/mL"},
      {"measurement": "MIC, E. faecalis TH4132", "setting": "E. faecalis TH4132; replicate 3 (Source Data)", "result": 1, "unit": "µg/mL"},
      {"measurement": "MIC", "setting": "E. faecalis TH4126; Enterococcus faecalis, TH4126, broth microdilution (CLSI), MHB + 0.01% polysorbate 80, 37 °C, 16–20 h, n = 3", "result": "> 32", "unit": "µg/mL"},
      {"measurement": "MIC, E. faecalis TH4126", "setting": "E. faecalis TH4126; replicate 1 (Source Data)", "result": ">32", "unit": "µg/mL"},
      {"measurement": "MIC, E. faecalis TH4126", "setting": "E. faecalis TH4126; replicate 2 (Source Data)", "result": ">32", "unit": "µg/mL"},
      {"measurement": "MIC, E. faecalis TH4126", "setting": "E. faecalis TH4126; replicate 3 (Source Data)", "result": ">32", "unit": "µg/mL"},
      {"measurement": "MIC", "setting": "VRE TH4939; [1]", "result": "> 32", "unit": "µg/mL"},
      {"measurement": "MIC, VRE TH4939", "setting": "VRE TH4939; replicate 1 (Source Data)", "result": ">32", "unit": "µg/mL"},
      {"measurement": "MIC, VRE TH4939", "setting": "VRE TH4939; replicate 2 (Source Data)", "result": ">32", "unit": "µg/mL"},
      {"measurement": "MIC, VRE TH4939", "setting": "VRE TH4939; replicate 3 (Source Data)", "result": ">32", "unit": "µg/mL"},
      {"measurement": "MIC", "setting": "VRE TH4937; [1]", "result": "> 32", "unit": "µg/mL"},
      {"measurement": "MIC, VRE TH4937", "setting": "VRE TH4937; replicate 1 (Source Data)", "result": ">32", "unit": "µg/mL"},
      {"measurement": "MIC, VRE TH4937", "setting": "VRE TH4937; replicate 2 (Source Data)", "result": ">32", "unit": "µg/mL"},
      {"measurement": "MIC, VRE TH4937", "setting": "VRE TH4937; replicate 3 (Source Data)", "result": ">32", "unit": "µg/mL"},
      {"measurement": "MIC", "setting": "MRSA BAA-1695; Staphylococcus aureus, broth microdilution (CLSI), MHB + 0.01% polysorbate 80, 37 °C, 16–20 h, n = 3", "result": "> 32", "unit": "µg/mL"},
      {"measurement": "MIC, MRSA BAA-1695", "setting": "MRSA BAA-1695; replicate 1 (Source Data)", "result": ">32", "unit": "µg/mL"},
      {"measurement": "MIC, MRSA BAA-1695", "setting": "MRSA BAA-1695; replicate 2 (Source Data)", "result": ">32", "unit": "µg/mL"},
      {"measurement": "MIC, MRSA BAA-1695", "setting": "MRSA BAA-1695; replicate 3 (Source Data)", "result": ">32", "unit": "µg/mL"},
      {"measurement": "MIC", "setting": "MRSA TH4115; Staphylococcus aureus, MRSA, broth microdilution (CLSI), MHB + 0.01% polysorbate 80, 37 °C, 16–20 h, n = 3", "result": 32, "unit": "µg/mL"},
      {"measurement": "MIC, MRSA TH4115", "setting": "MRSA TH4115; replicate 1 (Source Data)", "result": 32, "unit": "µg/mL"},
      {"measurement": "MIC, MRSA TH4115", "setting": "MRSA TH4115; replicate 2 (Source Data)", "result": 32, "unit": "µg/mL"},
      {"measurement": "MIC, MRSA TH4115", "setting": "MRSA TH4115; replicate 3 (Source Data)", "result": 32, "unit": "µg/mL"},
      {"measurement": "MIC", "setting": "S. aureus TH4112; Staphylococcus aureus, TH4112, broth microdilution (CLSI), MHB + 0.01% polysorbate 80, 37 °C, 16–20 h, n = 3", "result": 0.5, "unit": "µg/mL"},
      {"measurement": "MIC, S. aureus TH4112", "setting": "S. aureus TH4112; replicate 1 (Source Data)", "result": 0.5, "unit": "µg/mL"},
      {"measurement": "MIC, S. aureus TH4112", "setting": "S. aureus TH4112; replicate 2 (Source Data)", "result": 0.5, "unit": "µg/mL"},
      {"measurement": "MIC, S. aureus TH4112", "setting": "S. aureus TH4112; replicate 3 (Source Data)", "result": 0.5, "unit": "µg/mL"},
      {"measurement": "MIC", "setting": "S. aureus ATCC29213", "result": 2, "unit": "µg/mL"},
      {"measurement": "MIC", "setting": "MRSA ATCC33591", "result": "> 16", "unit": "µg/mL"}
    ]},
    {"molecule": "Arg10-teixobactin", "values": [
      {"measurement": "Loss of potency compared with teixobactin", "setting": "MRSA", "result": "more than 4 fold"},
      {"measurement": "MIC against MRSA", "setting": "MRSA", "result": 2, "unit": "µg/mL"}
    ]},
    {"molecule": "CN[C@H](CC(C)C)C(=O)N[C@H]1C(=O)N[C@@H](CC(N)=O)C(=O)N[C@H]2C(=O)N[C@H]3C(=O)N[C@H](C(=O)N[C@H](C(=O)O)c4cc(O)cc(O)c4-c4cc3ccc4O)[C@H](O)c3ccc(c(Cl)c3)Oc3cc2cc(c3O[C@@H]2O[C@H](CO)[C@@H](O)[C@H](O)[C@H]2O[C@H]2C[C@](C)(N)[C@H](O)[C@H](C)O2)Oc2ccc(cc2Cl)[C@H]1O", "note": "[Vancomycin]", "values": [
      {"measurement": "survival number", "setting": "S. pneumoniae D39; 24 h post-infection", "result": 6},
      {"measurement": "survival number", "setting": "S. pneumoniae D39; 36 h post-infection", "result": 6},
      {"measurement": "survival number", "setting": "S. pneumoniae D39; 48 h post-infection", "result": 6},
      {"measurement": "Survival rate 48 h after infection", "setting": "S. pneumoniae D39; single dose 5 mg kg^−1 i.v., 1 h post infection, positive control, six female mice per group", "result": 100, "unit": "%"},
      {"measurement": "Log C.F.U. / mouse thigh", "setting": "MRSA ATCC 33591; mouse 1", "result": 3.903, "unit": "Log C.F.U. / mouse thigh"},
      {"measurement": "Log C.F.U. / mouse thigh", "setting": "MRSA ATCC 33591; mouse 2", "result": 3.176, "unit": "Log C.F.U. / mouse thigh"},
      {"measurement": "Log C.F.U. / mouse thigh", "setting": "MRSA ATCC 33591; mouse 3", "result": 3.748, "unit": "Log C.F.U. / mouse thigh"}
    ]}
  ]
}
